Converted amounts (≈) assume the structure as drawn. The source made the active and inactive calls. The calls are words filed in the database; no cut-off is given here.
Key:
[1] = tested on: A-375; assay: Synergistic antiproliferative activity against human A-375 cells assessed as combination index at 35 uM incubated for 48 hrs in presence of 6 uM cisplatin by MTT assay; assay type: functional
[2] = tested on: A549; assay: Antiproliferative activity against human A549 cells assessed as cisplatin LD50 at 100 uM incubated for 48 hrs in presence of cisplatin by MTT assay; assay type: functional; conditions: read-out: LD50 (the source's name)
[3] = tested on: OVCAR-3; assay: Synergistic antiproliferative activity against human OVCAR-3 cells assessed as combination index at 75 uM incubated for 48 hrs in presence of 6 uM cisplatin by MTT assay; assay type: functional
[4] = tested on: A-375; assay: Synergistic antiproliferative activity against human A-375 cells assessed as combination index at 50 uM incubated for 48 hrs in presence of 6 uM cisplatin by MTT assay; assay type: functional
[5] = tested on: A-375; assay: Antiproliferative activity against human A-375 cells assessed as cisplatin LD50 at 35 uM incubated for 48 hrs in presence of cisplatin by MTT assay; assay type: functional; conditions: read-out: LD50 (the source's name)
[6] = tested on: OVCAR-3; assay: Antiproliferative activity against human OVCAR-3 cells incubated for 48 hrs by MTT assay; assay type: functional; conditions: read-out: LD50 (the source's name)
[7] = Kinetic solubility of compound in neutral buffer at pH 7.4 at 250 uM measured after 24 hrs by UPLC/MS analysis; assay type: physicochemical; conditions: read-out: Kinetic_solubility
[8] = molecular target: T1, DNA polymerase eta (Homo sapiens, UniProt Q9Y253); assay: Inhibition of C-terminal 6xHis-tagged human DNA polymerase eta (1 to 511 residues) expressed in Escherichia coli BL21 DE3 using 5'-IRD700-GCAGGTCGACTCCAAAG-3' primer/ 5'-TCGGTACCGGGTTAGCCTTTGGAGTCGACCTGC-3' template as DNA substrate incubated for 60 mins in presence of Mg2+ by bromophenol blue staining based assay
T1 sequence (Q9Y253 whole entry): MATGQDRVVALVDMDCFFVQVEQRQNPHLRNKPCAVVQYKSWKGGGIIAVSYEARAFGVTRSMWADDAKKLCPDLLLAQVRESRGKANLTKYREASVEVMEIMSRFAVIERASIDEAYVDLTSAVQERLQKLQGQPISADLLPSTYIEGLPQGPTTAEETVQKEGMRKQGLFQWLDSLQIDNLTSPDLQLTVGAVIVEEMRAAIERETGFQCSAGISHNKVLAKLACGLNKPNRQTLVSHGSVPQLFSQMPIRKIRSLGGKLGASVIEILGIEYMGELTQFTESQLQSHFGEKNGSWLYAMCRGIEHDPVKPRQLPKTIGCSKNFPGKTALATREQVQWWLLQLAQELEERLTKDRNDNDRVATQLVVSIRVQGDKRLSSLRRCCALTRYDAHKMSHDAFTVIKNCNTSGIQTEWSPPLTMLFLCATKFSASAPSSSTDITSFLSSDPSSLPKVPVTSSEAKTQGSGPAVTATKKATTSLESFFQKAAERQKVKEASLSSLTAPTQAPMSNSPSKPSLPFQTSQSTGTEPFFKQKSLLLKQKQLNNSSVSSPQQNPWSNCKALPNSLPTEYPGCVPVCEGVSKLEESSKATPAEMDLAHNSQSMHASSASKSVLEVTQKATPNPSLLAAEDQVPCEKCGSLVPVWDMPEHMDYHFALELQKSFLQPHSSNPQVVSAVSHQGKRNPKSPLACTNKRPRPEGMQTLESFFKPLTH

[9] = tested on: OVCAR-3; assay: Antiproliferative activity against human OVCAR-3 cells assessed as cisplatin LD50 at 50 uM incubated for 48 hrs in presence of cisplatin by MTT assay; assay type: functional; conditions: read-out: LD50 (the source's name)
[10] = tested on: OVCAR-3; assay: Synergistic antiproliferative activity against human OVCAR-3 cells assessed as combination index at 75 uM incubated for 48 hrs in presence of 12.5 uM cisplatin by MTT assay; assay type: functional
[11] = tested on: A549; assay: Synergistic antiproliferative activity against human A549 cells assessed as combination index at 50 uM incubated for 48 hrs in presence of 6 uM cisplatin by MTT assay; assay type: functional
[12] = tested on: OVCAR-3; assay: Antiproliferative activity against human OVCAR-3 cells assessed as cisplatin LD50 at 75 uM incubated for 48 hrs in presence of cisplatin by MTT assay; assay type: functional; conditions: read-out: LD50 (the source's name)
[13] = tested on: A-375; assay: Upregulation of phosphorylated gamma-H2AX level in human A375 cells at 30 uM incubated for 48 hrs by in presence of cisplatin by Western blot analysis; assay type: functional, cell-based
[14] = tested on: A549; assay: Antiproliferative activity against human A549 cells assessed as cisplatin LD50 at 50 uM incubated for 48 hrs in presence of cisplatin by MTT assay; assay type: functional; conditions: read-out: LD50 (the source's name)
[15] = Upregulation of phosphorylated gamma-H2AX level in human OVCAR-3 cells assessed as fold increase in activity at 20 uM incubated for 24 hrs by in presence of cisplatin by immunofluorescence based microscopy relative to cisplatin; assay type: functional
[16] = tested on: A549; assay: Synergistic antiproliferative activity against human A549 cells assessed as combination index at 100 uM incubated for 48 hrs in presence of 6 uM cisplatin by MTT assay; assay type: functional
[17] = tested on: A-375; assay: Antiproliferative activity against human A-375 cells assessed as cisplatin LD50 at 50 uM incubated for 48 hrs in presence of cisplatin by MTT assay; assay type: functional; conditions: read-out: LD50 (the source's name)
[18] = tested on: A549; assay: Synergistic antiproliferative activity against human A549 cells assessed as combination index at 100 uM incubated for 48 hrs in presence of 12.5 uM cisplatin by MTT assay; assay type: functional
[19] = Upregulation of phosphorylated gamma-H2AX level in human A375 cells assessed as fold increase in activity at 20 uM incubated for 24 hrs by in presence of cisplatin by immunofluorescence based microscopy relative to cisplatin; assay type: functional, A-375
[20] = tested on: OVCAR-3; assay: Upregulation of phosphorylated gamma-H2AX level in human OVCAR-3 cells incubated for 48 hrs by Western blot analysis; assay type: functional, cell-based; conditions: dose 30.0 µM
[21] = Metabolic stability in mouse liver microsome assessed as half life at 4.6 uM incubated upto 60 mins by LC/MS-MS analysis; assay type: ADME; conditions: liver microsomes
[22] = tested on: A-375; assay: Antiproliferative activity against human A-375 cells incubated for 48 hrs by MTT assay; assay type: functional; conditions: read-out: LD50 (the source's name)
[23] = Metabolic stability in mouse plasma assessed as half life at 2 uM incubated upto 120 mins by UPLC/MS analysis; assay type: ADME, cell-free
[24] = tested on: A549; assay: Synergistic antiproliferative activity against human A549 cells assessed as combination index at 50 uM incubated for 48 hrs in presence of 12.5 uM cisplatin by MTT assay; assay type: functional
[25] = tested on: OVCAR-3; assay: Synergistic antiproliferative activity against human OVCAR-3 cells assessed as combination index at 50 uM incubated for 48 hrs in presence of 12.5 uM cisplatin by MTT assay; assay type: functional
[26] = (§1) Antiproliferative activity against HEK293 cells incubated for 48 hrs by MTT assay; assay type: toxicity, cell-based; conditions: human, HEK293 cells, read-out: LD50
[27] = tested on: A-375; assay: Upregulation of phosphorylated gamma-H2AX level in human A375 cells incubated for 48 hrs by Western blot analysis; assay type: functional, cell-based; conditions: dose 30.0 µM
[28] = tested on: A-375; assay: Synergistic antiproliferative activity against human A-375 cells assessed as combination index at 35 uM incubated for 48 hrs in presence of 12.5 uM cisplatin by MTT assay; assay type: functional
[29] = tested on: OVCAR-3; assay: Synergistic antiproliferative activity against human OVCAR-3 cells assessed as combination index at 50 uM incubated for 48 hrs in presence of 6 uM cisplatin by MTT assay; assay type: functional
[30] = tested on: A549; assay: Antiproliferative activity against human A549 cells incubated for 48 hrs by MTT assay; assay type: functional; conditions: read-out: LD50 (the source's name)
[31] = tested on: A-375; assay: Synergistic antiproliferative activity against human A-375 cells assessed as combination index at 50 uM incubated for 48 hrs in presence of 12.5 uM cisplatin by MTT assay; assay type: functional
[32] = tested on: OVCAR-3; assay: Antiproliferative activity against human OVCAR-3 cells assessed as cisplatin LD50 at 10 uM incubated for 48 hrs in presence of cisplatin by MTT assay; assay type: functional; conditions: read-out: LD50 (the source's name)
[33] = tested on: A549; assay: Antiproliferative activity against human A549 cells assessed as cisplatin LD50 at 30 uM incubated for 48 hrs in presence of cisplatin by MTT assay; assay type: functional; conditions: read-out: LD50 (the source's name)
[34] = tested on: A-375; assay: Antiproliferative activity against human A-375 cells assessed as cisplatin LD50 at 20 uM incubated for 48 hrs in presence of cisplatin by MTT assay; assay type: functional; conditions: read-out: LD50 (the source's name)
[35] = tested on: A549; assay: Additive antiproliferative activity against human A549 cells assessed as combination index at 30 uM incubated for 48 hrs in presence of 12.5 uM cisplatin by MTT assay; assay type: functional
[36] = tested on: OVCAR-3; assay: Antagonistic antiproliferative activity against human OVCAR-3 cells assessed as combination index at 10 uM incubated for 48 hrs in presence of 12.5 uM cisplatin by MTT assay; assay type: functional
[37] = tested on: A549; assay: Antagonistic antiproliferative activity against human A549 cells assessed as combination index at 20 uM incubated for 48 hrs in presence of 12.5 uM cisplatin by MTT assay; assay type: functional
[38] = tested on: OVCAR-3; assay: Additive antiproliferative activity against human OVCAR-3 cells assessed as combination index at 10 uM incubated for 48 hrs in presence of 6 uM cisplatin by MTT assay; assay type: functional
[39] = tested on: A549; assay: Antiproliferative activity against human A549 cells assessed as cisplatin LD50 at 20 uM incubated for 48 hrs in presence of cisplatin by MTT assay; assay type: functional; conditions: read-out: LD50 (the source's name)
[40] = tested on: A-375; assay: Additive antiproliferative activity against human A-375 cells assessed as combination index at 10 uM incubated for 48 hrs in presence of 6 uM cisplatin by MTT assay; assay type: functional
[41] = tested on: A549; assay: Additive antiproliferative activity against human A549 cells assessed as combination index at 30 uM incubated for 48 hrs in presence of 6 uM cisplatin by MTT assay; assay type: functional
[42] = tested on: OVCAR-3; assay: Antiproliferative activity against human OVCAR-3 cells assessed as cisplatin LD50 at 5 uM incubated for 48 hrs in presence of cisplatin by MTT assay; assay type: functional; conditions: read-out: LD50 (the source's name)
[43] = tested on: A-375; assay: Antiproliferative activity against human A-375 cells assessed as cisplatin LD50 at 10 uM incubated for 48 hrs in presence of cisplatin by MTT assay; assay type: functional; conditions: read-out: LD50 (the source's name)
[44] = tested on: A549; assay: Additive antiproliferative activity against human A549 cells assessed as combination index at 20 uM incubated for 48 hrs in presence of 6 uM cisplatin by MTT assay; assay type: functional
[45] = Antiproliferative activity against HEK293 cells incubated for 72 hrs by MTT assay; assay type: toxicity, cell-based; conditions: human, read-out: LD50
[46] = tested on: A-375; assay: Antiproliferative activity against human A-375 cells assessed as cisplatin LD50 at 30 uM incubated for 48 hrs in presence of cisplatin by MTT assay; assay type: functional; conditions: read-out: LD50 (the source's name)
[47] = tested on: HEK293; assay: as §1; assay type: toxicity, cell-based; conditions: human, hek293, 48 h

## O=c1c(OCCCO)c(-c2ccc(O)c(O)c2)oc2cc(O)cc(O)c12
[1]
  CI: 0.66
[2]
  CC50: 9.4 µM
[3]
  CI: 0.5
[4]
  CI: 0.27
[5]
  CC50: 2.6 µM
[6]
  CC50: > 100 µM
[7]
  solubility kinetic at 24 h, 250 µM: 231 µM (≈ 83.2 µg/mL)
[8]
  IC50: 14.7 µM
[9]
  CC50: 2.8 µM
[10]
  CI: 0.72
[11]
  CI: 0.78
[12]
  CC50: 0.27 µM
[13]
  Activity: Active
[14]
  CC50: 19.7 µM
[15]
  fold change (FC): >2
[16]
  CI: 0.6
[17]
  CC50: 1 µM
[18]
  CI: 0.58
[19]
  fold change (FC): >2
[20]
  Activity: Dose-Dependent Effect
[21]
  half-life at 4.6 µM: > 1 h
[22]
  CC50: > 100 µM
[23]
  half-life at 2 µM: 1.5 h
[24]
  CI: 0.8
[25]
  CI: 0.78
[26]
  CC50 at 48 h: > 100 µM
[27]
  Activity: Dose-Dependent Effect
[28]
  CI: 0.78
[29]
  CI: 0.52
[30]
  CC50: > 100 µM
[31]
  CI: 0.23
[32]
  CC50: 4.8 µM

## COc1c(-c2ccc(O)c(O)c2)oc2cc(O)cc(O)c2c1=O [3-O-METHYLQUERCETIN]
[33]
  CC50: 7.4 µM
[34]
  CC50: 0.5 µM
[6]
  CC50: 5.2 µM
[7]
  solubility kinetic at 24 h, 250 µM: 229 µM (≈ 72.4 µg/mL)
[35]
  CI: 0.94
[8]
  IC50: 10.8 µM
[36]
  CI: 2.33
[37]
  CI: 1.24
[38]
  CI: 1.15
[15]
  fold change (FC): >2
[39]
  CC50: 11.9 µM
[40]
  CI: 0.96
[41]
  CI: 0.96
[42]
  CC50: 4.8 µM
[43]
  CC50: 2 µM
[19]
  fold change (FC): >2
[44]
  CI: 1.03
[21]
  half-life at 4.6 µM: > 1 h
[45]
  CC50 at 72 h: 30.5 µM
[22]
  CC50: 29 µM
[23]
  half-life at 2 µM: > 2 h
[46]
  CC50: 0.4 µM
[47]
  Activity: Non-Toxic
[30]
  CC50: 60 µM
[31]
  CI: 0.78
[32]
  CC50: 5.8 µM

From ChEMBL document CHEMBL5325401, “Computer-aided identification, synthesis, and biological evaluation of DNA polymerase η inhibitors for the treatment of cancer” (Eur J Med Chem, 2023)
